Data set [1] concerns Peritoneal macrophage cell. Put plainly: Inhibition of TNFalpha production in LPS-induced mouse peritoneal macrophages at 50 uM incubated for 24 hrs by sandwich ELISA method. It counts as functional, cell-based.
The test system of data set [2] is Peritoneal macrophage cell. Put plainly: Inhibition of IL-1beta production in LPS-induced mouse peritoneal macrophages at 50 uM incubated for 24 hrs by sandwich ELISA method. It is filed as functional, cell-based.
Data set [3] deals with Jurkat. The data set can be described thus: Inhibition of TNFalpha expression in human Jurkat cells containing GFP gene under control of TNF gene promoter at 100 uM incubated for 24 hrs. It counts as functional.
For data set [4], the system named is Jurkat. The data set can be described thus: Inhibition of TNFalpha expression in human Jurkat cells containing GFP gene under control of TNF gene promoter at 10 uM incubated for 24 hrs. It is filed as functional.
Data set [5] has as its system Jurkat. The data set can be described thus: Induction of total cell death in human Jurkat cells containing GFP gene under control of TNF gene promoter at 100 uM incubated for 24 hrs by propidium iodide staining based assay.
Data set [6] relates to Jurkat. Put plainly: Induction of apoptosis in human Jurkat cells at 10 uM incubated for 24 hrs by FITC-labeled capsase-3 substrate based Nucview-488 caspase-3 assay. It is filed as functional, cell-based.
In data set [7] the test system is Jurkat. The data set can be described thus: Induction of apoptosis in human Jurkat cells at 100 uM incubated for 24 hrs by FITC-labeled capsase-3 substrate based Nucview-488 caspase-3 assay. It counts as functional, cell-based.
Data set [8] deals with Jurkat. The data set can be described thus: Induction of total cell death in human Jurkat cells containing GFP gene under control of TNF gene promoter at 10 uM incubated for 24 hrs by propidium iodide staining based assay.
Data set [9] relates to Jurkat. Put plainly: Inhibition of TNFalpha expression in human Jurkat cells containing GFP gene under control of TNF gene promoter at 100 uM incubated for 24 hrs relative to thalidomide. It is filed as functional.
For data set [10], the system named is Jurkat. Put plainly: Inhibition of TNFalpha expression in human Jurkat cells containing GFP gene under control of TNF gene promoter at 10 uM incubated for 24 hrs relative to thalidomide. It is filed as functional.
In data set [11] the test system is Jurkat. Put plainly: Inhibition of TNFalpha expression in human Jurkat cells containing GFP gene under control of TNF gene promoter incubated for 24 hrs. It is filed as functional, cell-based.
The species entered for data set [12] is Mus musculus. The data set can be described thus: Reduction in serum cholesterol levels in Swiss white mouse after 16 days. It is filed as functional.
Data set [13] is filed under the species Mus musculus. The data set can be described thus: Reduction in serum triglyceride levels in Swiss white mouse after 14 days. It is filed as functional.

Calls of active or inactive are those of the source. The rule behind the calls is not given here.

For `CC[C@H](C)[C@@H](C(=O)N/N=C\c1ccc(Cl)cc1)N1C(=O)c2ccccc2C1=O`, the inhibition entry (in data set [1]; in data set [2]; in the data set on Jurkat [3]) was “Active” each time. In addition, in the data set with Jurkat [4], the inhibition at 10 µM turned out to be 13%. The Activity entry in the data set on Jurkat [5] is given as “Toxic”. The result in the data set on Jurkat [6] and in the data set with Jurkat [7] was Active.
Consider `O=C1CCC(N2C(=O)c3ccccc3C2=O)C(=O)N1` (configuration not stated) [THALIDOMIDE], for which the inhibition entry in data set [1] and in data set [2] was “Active” in each case. For the same compound, the inhibition at 100 µM with Jurkat [3] was 5%. In the data set with Jurkat [4], this compound displayed an inhibition at 10 µM of 5%. Further, the Activity in the data set with Jurkat [8] and with Jurkat [5] was 2% in each case.
For `C[C@@H](C(=O)N/N=C\c1ccc(Cl)cc1)N1C(=O)c2ccccc2C1=O`, the inhibition result in the data set with Jurkat [3] and with Jurkat [4] was “Active” each time.
`O=C(N/N=C\c1ccc(Cl)cc1)[C@H](Cc1ccccc1)N1C(=O)c2ccccc2C1=O`: the inhibition result in the data set on Jurkat [3] and with Jurkat [4] was “Active” each time.
Turning to `COc1ccc(/C=N\NC(=O)[C@H](Cc2ccccc2)N2C(=O)c3ccccc3C2=O)cc1`, the inhibition result in data set [1] and in data set [2] was “Active” in each case.
As to `O=C(N/N=C\c1ccc(Cl)c(Cl)c1)[C@H](Cc1ccccc1)N1C(=O)c2ccccc2C1=O`, the inhibition result in the data set with Jurkat [3] and in the data set on Jurkat [4] was “Active” throughout. Further, the Activity result in the data set with Jurkat [5] is on record as “Toxic”.
The compound `Nc1cccc2c1CN(C1CCC(=O)NC1=O)C2=O` (configuration not stated) [LENALIDOMIDE] registered an inhibition at 100 µM in the data set with Jurkat [3] of 14%. Besides, in the data set with Jurkat [4], testing at 10 µM gave an inhibition of 14%. Also, the “fold change (FC)” value with Jurkat [9] and in the data set with Jurkat [10] was 2 in each case. Further, the Activity entry in the data set on Jurkat [8] and in the data set on Jurkat [5] was “Non-toxic” each time. The result with Jurkat [6] and with Jurkat [7] was Active.
`C[C@@H](C(=O)N/N=C\c1ccc(Cl)c(Cl)c1)N1C(=O)c2ccccc2C1=O`: the inhibition result with Jurkat [3] and in the data set with Jurkat [4] was “Active” throughout.
On to `CCOC(=O)[C@H](Cc1ccccc1)N1C(=O)c2ccccc2C1=O`, for which the inhibition result in [1] and in [2] was “Active” each time.
`NNC(=O)[C@H](Cc1ccccc1)N1C(=O)c2ccccc2C1=O`: the inhibition result in data set [1] and in data set [2] was “Active” in each case.
For `CC[C@H](C)[C@@H](C(=O)N/N=C\c1ccc(Cl)c(Cl)c1)N1C(=O)c2ccccc2C1=O`, the inhibition result in data set [1] and in data set [2] was “Active” each time. Also, in the data set with Jurkat [3], at 100 µM the inhibition was 17%. In addition, the inhibition result with Jurkat [4] is “inactive”. For the same compound, the “fold change (FC)” value in the data set on Jurkat [9] was found to be 3. Further, the inhibition entry with Jurkat [11] is “Dose-dependent effect”. Further, the Activity entry in the data set with Jurkat [8] is reported as “Non-toxic”; with Jurkat [5], “Toxic”.
Turning to `CC(=O)c1ccccc1N1C(=O)c2ccccc2C1=O`, the entries for the “inhibition (INH)” value in the data set filed under Mus musculus [12] and in the data set listed under Mus musculus [13] were 57% and 44%, respectively.
As for `COc1ccc(/C=N\NC(=O)[C@H](C)N2C(=O)c3ccccc3C2=O)cc1`, the inhibition entry in data set [1] and in data set [2] was “Active” in each case.
Regarding `CC[C@H](C)[C@@H](C(=O)N/N=C\c1ccccc1)N1C(=O)c2ccccc2C1=O`, the inhibition result (in [1]; in data set [2]; in the data set with Jurkat [3]; in the data set on Jurkat [4]) was “Active” in each case. Moreover, in the data set on Jurkat [8], the Activity result is recorded as “Non-toxic”.
`CCOC(=O)[C@H]([C@@H](C)CC)N1C(=O)c2ccccc2C1=O`: the inhibition entry in [1] and in [2] was “Active” throughout.
Take `C[C@@H](C(=O)N/N=C\c1ccccc1)N1C(=O)c2ccccc2C1=O`: the inhibition entry in data set [1] and in data set [2] was “Active” each time. Also, the inhibition at 100 µM with Jurkat [3] was found to be 9.8%. Moreover, the inhibition at 10 µM with Jurkat [4] turned out to be 9.8%. Besides, the Activity result in the data set with Jurkat [8] is listed as “Non-toxic”. The result in the data set with Jurkat [6] and in the data set with Jurkat [7] was inactive.
With `C[C@@H](C(=O)O)N1C(=O)c2ccccc2C1=O`, the inhibition entry in [1] and in data set [2] was “Active” each time.
Consider `O=C(N/N=C\c1ccccc1)[C@H](Cc1ccccc1)N1C(=O)c2ccccc2C1=O`, for which the inhibition result in data set [1] and in data set [2] was “Active” throughout. This compound displayed an inhibition at 100 µM in the data set on Jurkat [3] of 17%. Further, the inhibition result in the data set with Jurkat [4] was “inactive”. Moreover, in the data set with Jurkat [9], the “fold change (FC)” value is reported as 3. Also, the inhibition result in the data set on Jurkat [11] was “Dose-dependent effect”. The Activity entry in the data set on Jurkat [5] was “Toxic”.
In the case of `C[C@@H](C(=O)NN)N1C(=O)c2ccccc2C1=O`, the inhibition entry in data set [1] and in data set [2] was “Active” throughout.
`CC[C@H](C)[C@@H](C(=O)N/N=C\c1ccc(OC)cc1)N1C(=O)c2ccccc2C1=O`: the inhibition entry in data set [1] and in [2] was “Active” throughout.
In the case of `CCOC(=O)[C@H](C)N1C(=O)c2ccccc2C1=O`, the inhibition entry in data set [1] and in data set [2] was “Active” in each case.

For the origin of these results see ChEMBL document CHEMBL3580609, “Novel phthalimide derivatives with TNF- and IL-1 expression inhibitory and apoptotic inducing properties” (Medchemcomm, 2014).
